Results reported in patent publication US7605227B2, “Melanoma antigen peptide analogues” (MannKind Corporation, priority 2005, dated 2009).
Square brackets hold non-standard residues; d marks the D form. Ends that are not written are not given here. Peptide text beside a SMILES is read from it. Phe(4-NO2) = N[C@@H](Cc1ccc([N+](=O)[O-])cc1)C(=O)O; Bta = N[C@@H](Cc1csc2ccccc12)C(=O)O; Phg = N[C@H](C(=O)O)c1ccccc1; Nle = CCCC[C@H](N)C(=O)O; Nva = CCC[C@H](N)C(=O)O

What was measured:
HLA-A*0201 = HLA-A*0201 (Homo sapiens, UniProt P04439, D140Y/D185E/D98H/E176V/E277Q/G131W/G231S/I119V/I121R/I166T/I218V/L300P/L318F/N151K/N90K/P208A/P217A/Q86G/Q94H/R138H/R169H/T345S); experiment: Peptide binding using T2 cells (SSX-2 41-49 analogs); settings: for Relative affinity (1/RA): half maximal binding of wild-type peptide relative to analog, native = 1.0
From the text: Thus, at limiting concentrations of peptide, it is a measurement of Kon mostly and at saturation levels of peptide it is a measurement of both Kon and Koff.

[1] = test system: T cell lines against a natural (non-mutated) epitope (SSX-241-49); experiment: Cross-reactivity and functional avidity: IFN-gamma from T cell lines against natural SSX-2 41-49 epitope; type: cell-based, HHD transgenic mice; settings: for Cross-reactivity and fct avidity (native to analogs)*: IFN-gamma from T cell line raised against native SSX-2 41-49, native = 1, lower = more active;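 for all read-outs here: peptide analogs tested ex vivo with competent APCs, IFN-gamma in supernatant measured by ELISA, readouts include minimal triggering concentration, peak effect and concentration at peak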

Compound	Relative affinity (1/RA) (HLA-A*0201)	Cross-reactivity and fct avidity (native to analogs)* [1]	binding affinity (and stability) with HLA-A*0201 relative to wild-type, in words (HLA-A*0201; SSX-2 41-49 analogs)	cross-reactivity / IFN-gamma inducing activity relative to wild-type, in words ([1]; SSX-2 41-49 analogs, wild-type specific T cells)
FVSEKLFSA	2.4	>10		
FVSEKIFTV [SSX2 41-49 (K41F, A42V, Y48T)]	3.8	>10		
CC[C@H](C)[C@H](NC(=O)[C@H](CCCCN)NC(=O)[C@H](CCC(=O)O)NC(=O)[C@H](CO)NC(=O)[C@@H](NC(=O)[C@@H](N)Cc1ccccc1)C(C)C)C(=O)N[C@@H](Cc1ccccc1)C(=O)N[C@@H](Cc1ccccc1)C(=O)N[C@H](C(=O)O)C(C)C [SSX2 41-49 (K41F, A42V, Y48F)]	1.7	10		
FVSEKLFYV [SSX2 41-49 (K41F, A42V, I46L)]	1.9	3		
KMSEKIFYV [SSX2 41-49 (A42M)]	1.7	0.1		
CCC[C@H](NC(=O)[C@H](CO)NC(=O)[C@@H](NC(=O)[C@@H](N)Cc1ccccc1)C(C)C)C(=O)N[C@@H](CCCCN)C(=O)N[C@H](C(=O)N[C@@H](Cc1ccccc1)C(=O)N[C@@H](Cc1ccc(O)cc1)C(=O)N[C@H](C(=O)O)C(C)C)[C@@H](C)CC [SSX2 41-49 (K41F, A42V, E44Nva), FVS(Nva)KIFYV] (H-FVS[Nva]KIFYV-OH)	3.9	3		
KISEKIFYV [SSX2 41-49 (A42I)]	1.7	3		
YMSEKIFYV [SSX2 41-49 (K41Y, A42M)]	0.6	3		
CC[C@H](C)[C@H](NC(=O)[C@H](CCCCN)NC(=O)[C@H](CCC(=O)O)NC(=O)[C@H](CO)NC(=O)[C@H](C)NC(=O)[C@@H](N)c1ccccc1)C(=O)N[C@@H](Cc1ccccc1)C(=O)N[C@@H](Cc1ccc(O)cc1)C(=O)N[C@H](C(=O)O)C(C)C [SSX2 41-49 (K41(Phg))] (H-[Phg]ASEKIFYV-OH)	2.5	0.1		
CCCC[C@H](NC(=O)[C@H](CCCCN)NC(=O)[C@H](CCC(=O)O)NC(=O)[C@H](CO)NC(=O)[C@@H](NC(=O)[C@@H](N)Cc1ccccc1)C(C)C)C(=O)N[C@@H](Cc1ccccc1)C(=O)N[C@@H](Cc1ccc(O)cc1)C(=O)N[C@H](C(=O)O)C(C)C [SSX2 41-49 (K41F, A42V, I46Nle), FVSEK(Nle)FYV] (H-FVSEK[Nle]FYV-OH)	1.1	10		
FVSQKIFYV [SSX2 41-49 (K41F, A42V, E44Q)]	0.4	10		
YLSEKIFYV [SSX2 41-49 (K41Y, A42L)]	1.2			
WVSEKIFYV [SSX2 41-49 (K41W, A42V)]	3.0	1		
CCCC[C@H](NC(=O)[C@H](CO)NC(=O)[C@@H](NC(=O)[C@@H](N)Cc1ccccc1)C(C)C)C(=O)N[C@@H](CCCCN)C(=O)N[C@H](C(=O)N[C@@H](Cc1ccccc1)C(=O)N[C@@H](Cc1ccc(O)cc1)C(=O)N[C@H](C(=O)O)C(C)C)[C@@H](C)CC [SSX2 41-49 (K41F, A42V, E44Nle), FVS(Nle)KIFYV] (H-FVS[Nle]KIFYV-OH)	1.1	10		
FVSEKIFYV [SSX2 41-49 (K41F, A42V)]	3.1	0.1		
KLSEKIFYI [SSX2 41-49 (A42L, V49I)]	2.6	0.03		
FVSEKIFSV [SSX2 41-49 (K41F, A42V, Y48S)]	3.9	>10		
FISEKIFYV [SSX2 41-49 (K41F, A42I)]	2.7	0.3		
CC[C@H](C)[C@H](NC(=O)[C@H](CCCCN)NC(=O)[C@H](CCC(=O)O)NC(=O)[C@H](CO)NC(=O)[C@@H](NC(=O)[C@@H](N)Cc1ccc(O)cc1)C(C)C)C(=O)N[C@@H](Cc1ccccc1)C(=O)N[C@@H](Cc1ccc(O)cc1)C(=O)N[C@H](C(=O)O)C(C)C [SSX2 41-49 (K41Y, A42V)]	1.0	0.1		

Compound	Relative affinity (1/RA) (HLA-A*0201)	Cross-reactivity and fct avidity (native to analogs)* [1]	binding affinity (and stability) with HLA-A*0201 relative to wild-type, in words (HLA-A*0201; SSX-2 41-49 analogs)	cross-reactivity / IFN-gamma inducing activity relative to wild-type, in words ([1]; SSX-2 41-49 analogs, wild-type specific T cells)
CC[C@H](C)[C@H](NC(=O)[C@H](CCCCN)NC(=O)[C@H](CCC(=O)O)NC(=O)[C@H](CO)NC(=O)[C@H](C)NC(=O)[C@@H](N)Cc1csc2ccccc12)C(=O)N[C@@H](Cc1ccccc1)C(=O)N[C@@H](Cc1ccc(O)cc1)C(=O)N[C@H](C(=O)O)C(C)C [SSX2 41-49 (K41(b-(3-benzothienyl)Ala))] (H-[Bta]ASEKIFYV-OH)	0.6	10		
FVSEKIFYM [SSX2 41-49 (K41F, A42V, V49M)]	0.8	>10		
CCC[C@H](NC(=O)[C@H](CCCCN)NC(=O)[C@H](CCC(=O)O)NC(=O)[C@H](CO)NC(=O)[C@@H](NC(=O)[C@@H](N)Cc1ccccc1)C(C)C)C(=O)N[C@@H](Cc1ccccc1)C(=O)N[C@@H](Cc1ccc(O)cc1)C(=O)N[C@H](C(=O)O)C(C)C [SSX2 41-49 (K41F, A42V, I46Nva), FVSEK(Nva)FYV] (H-FVSEK[Nva]FYV-OH)	2.4	1		
K(D-Ala)SEKIFYV [SSX2 41-49 (A42(D-Ala))]		10		
CC[C@H](C)[C@H](NC(=O)[C@H](CCCCN)NC(=O)[C@@H](NC(=O)[C@H](CO)NC(=O)[C@@H](NC(=O)[C@@H](N)Cc1ccccc1)C(C)C)[C@@H](C)O)C(=O)N[C@@H](Cc1ccccc1)C(=O)N[C@@H](Cc1ccc(O)cc1)C(=O)N[C@H](C(=O)O)C(C)C [SSX2 41-49 (K41F, A42V, E44T)]		>10		
FVSDKIFYV [SSX2 41-49 (K41F, A42V, E44D)]	1.1	>10		
WMSEKIFYV [SSX2 41-49 (K41W, A42M)]	2.9	1		
CC[C@H](C)[C@H](NC(=O)[C@H](CCCCN)NC(=O)[C@H](CCC(=O)O)NC(=O)[C@H](CO)NC(=O)[C@@H](NC(=O)[C@@H](N)Cc1ccc(O)cc1)[C@@H](C)CC)C(=O)N[C@@H](Cc1ccccc1)C(=O)N[C@@H](Cc1ccc(O)cc1)C(=O)N[C@H](C(=O)O)C(C)C [SSX2 41-49 (K41Y, A42I)]		1		
WLSEKIFYV [SSX2 41-49 (K41W, A42L)]	3.3	0.3		
FVSNKIFYV [SSX2 41-49 (K41F, A42V, E44N)]		>10		
CC[C@H](C)[C@H](NC(=O)[C@H](CCCCN)NC(=O)[C@H](CCC(=O)O)NC(=O)[C@H](CO)NC(=O)[C@@H](NC(=O)[C@@H](N)Cc1ccccc1)C(C)C)C(=O)N[C@@H](Cc1ccccc1)C(=O)N[C@H](C(=O)N[C@H](C(=O)O)C(C)C)c1ccccc1 [SSX2 41-49 (K41F, A42V, Y48Phg), FVSEKIF(Phg)V] (H-FVSEKIF[Phg]V-OH)	2.5	>10		
KNal-1SEKIFYV [SSX2 41-49 (A42(Nal-1))]		>10		
FVSEKVFYV (T cell peptide epitope analog) [SSX2 41-49 (K41F, A42V, I46V)]		1		
CCC[C@H](NC(=O)[C@H](Cc1ccc(O)cc1)NC(=O)[C@H](Cc1ccccc1)NC(=O)[C@@H](NC(=O)[C@H](CCCCN)NC(=O)[C@H](CCC(=O)O)NC(=O)[C@H](CO)NC(=O)[C@@H](NC(=O)[C@@H](N)Cc1ccccc1)C(C)C)[C@@H](C)CC)C(=O)O [SSX2 41-49 (K41F, A42V, V49Nva)]		0.1		
CC[C@H](C)[C@H](NC(=O)[C@H](CCCCN)NC(=O)[C@H](CCC(=O)O)NC(=O)[C@H](CO)NC(=O)[C@H](C)NC(=O)[C@@H](N)Cc1ccc([N+](=O)[O-])cc1)C(=O)N[C@@H](Cc1ccccc1)C(=O)N[C@@H](Cc1ccc(O)cc1)C(=O)N[C@H](C(=O)O)C(C)C [SSX2 41-49 (K41(Phe-4N02))] (H-[Phe(4-NO2)]ASEKIFYV-OH)	1.1	3	about the same as that of wild-type peptide	much lower concentration
CC[C@H](C)[C@H](NC(=O)[C@H](CCCCN)NC(=O)[C@H](CCC(=O)O)NC(=O)[C@H](CO)NC(=O)C(C)(C)NC(=O)[C@@H](N)CCCCN)C(=O)N[C@@H](Cc1ccccc1)C(=O)N[C@@H](Cc1ccc(O)cc1)C(=O)N[C@H](C(=O)O)C(C)C [SSX2 41-49 (A42(Aib)), KAibSEKIFYV]		3		
CC[C@H](C)[C@H](NC(=O)[C@H](CCCCN)NC(=O)[C@H](CCC(=O)O)NC(=O)[C@H](CO)NC(=O)[C@H](C)NC(=O)[C@@H](N)CCCCN)C(=O)N[C@@H](Cc1ccccc1)C(=O)N[C@@H](Cc1ccc(O)cc1)C(=O)N[C@H](C(=O)O)C(C)C [SSX2 41-49, reference compound]		1		
KASEKIFYI [SSX2 41-49 (V49I)]	1.0	10		
CC[C@H](C)[C@H](NC(=O)[C@H](CCCCN)NC(=O)[C@H](CCC(=O)O)NC(=O)[C@H](CO)NC(=O)[C@@H](NC(=O)[C@@H](N)Cc1ccccc1)C(C)C)C(=O)N[C@@H](Cc1ccccc1)C(=O)N[C@@H](Cc1ccc(O)cc1)C(=O)N[C@@H](C)C(=O)O [SSX2 41-49 (K41F, A42V, V49A)]		1		
